Measurements published in paper PMC13168289, “Potent acridone antimalarial against all three life stages of Plasmodium” (Nature Communications, 2026).
Several values for one entry are separate records, joined by “and”; a condition that tells them apart may be missing. Equal entries are not always repeated. Where two headings read alike, the source gives them in different places.

How the values were obtained:
[1] = system: P. cynomolgi hypnozoites and schizonts; parameters: method as in PMID: 21483865; conditions: primary hepatocyte P. cynomolgi assays; ref PMID: 21483865; read-out: in vitro liver-stage IC50; cited from earlier work
[2] = system: P. falciparum NF54 oocyst development in mosquitoes; test: standard membrane feeding assay (SMFA); type: in vivo, P. falciparum in Anopheles stephensi; conditions: drug in blood meal
Protocol: The SMFA assay was performed using P. falciparum NF54 gametocytes produced in vitro[35]. P. falciparum NF54 gametocytes were grown in human blood cultured in RPMI 1640 GlutaMax medium (Gibco) supplemented with 25 mM HEPES, hypoxanthine, and human serum. De-identified human blood and serum were obtained from the Australian Red Cross Blood Service. Mature (stage V) gametocytes were quantified in Giemsa-stained blood smears. Immediately prior to infection, a feeding mixture comprising 45% human serum and 55% human blood containing 0.15% stage V gametocytes and the desired concentration of drug or vehicle control, was prepared and maintained at 37 °C. Adult female Anopheles stephensi (MR4) mosquitoes reared under the standard insectary conditions[79] were placed in mesh-topped cups and allowed to feed on the gametocyte mixtures in prewarmed glass feeders wrapped with parafilm. […] Mosquito midguts were dissected 7 days after infection, stained in 0.2% mercurochrome, and oocysts were counted using a light microscope.

[3] = system: P. falciparum K13 mutant parasites SP045 and SP060; test: Growth, Resistance, and Recovery Assay (GRRA), ring-stage survival dose-response; type: cell-based, Plasmodium falciparum; conditions: read-out: GRRA50
Protocol: These isolates carry the validated R561H Kelch 13 propeller domain mutation associated with delayed parasite clearance in East Africa[24],[25]. Using the 6-hour GRRA[23], all strains were thawed, frozen, and cultured under standard conditions at 5% hematocrit. Samples parasitemia was measured by flow cytometry. Parasite cultures that were predominantly segmented schizonts were synchronized using a single Percoll layer method. Cultures that met quality control requirements of ≥70% early ring stage and ≥1% parasitemia were adjusted to 0.25% parasitemia at 2% hematocrit. […] The GRRA50 implements 11 RSA experiments to generate a dose-response curve for each parasite line per drug. Master mixes of samples were aliquoted into 2 technical replicates of 275 µL each in 96 well plates (2 treated each condition, 2 untreated). At 6 h post-exposure, 200 µL of media was removed from the wells and replaced with 200 µL of incomplete media and spun for 3 min at 800 g to rinse. The rinse was repeated a total of 3 times, after which 200 µL complete media was added back to the wells. At 120 h post-treatment, thin microscopy smears were made using 2 µL of culture for each sample and 20 µL of culture was transferred to PCR strips and stored at −80 °C until qPCR quantification. A standard curve of known parasitemia was generated using the NF54 parasite line for each qPCR quantification for conversion from Cycle threshold (Ct) to parasitemia and comparison between qPCR experiments. Replicate viability was calculated according to the GRRA method. Each individual reaction mixture and cycling conditions were set to previously used methods. Ct was calculated using AB1 SDA 2.4.1. software. […] We find that commonly reported thresholds (cutoffs) for resistance (e.g., 1% survival in traditional RSA) may not be broadly applicable, especially with lower thresholds subject to potential artifacts due to markedly low survival rates of ART-sensitive and low-level ART-resistant parasites. Regular RSA relies on a single drug concentration, 700 nM. To gain a more fine-scale quantification to compare drug susceptibilities with relevance to therapeutic success and failure, we developed the GRRA50 to generate full dose-response curves for precise quantitative comparisons.

blood-stage P. yoelii [4] = test: single-dose cure murine model, oral; type: in vivo, P. yoelii in CF1 mice
Description: (§1) Animals were housed at the VAPORHCS in Thoren Maxi-Miser microisolator cages (78 sq. in. floor space) with a maximum density of five females or four males per cage. Cages were maintained on a 12-h light/dark cycle and provided with autoclaved nesting materials (nestlets) for environmental enrichment. All mice had ad libitum access to food and water. Four- to five-week-old female and male outbred CF1 mice (Charles River Laboratories, Raleigh, NC, USA) were randomly assigned to treatment and control groups using a simple randomization procedure (e.g., computer-generated random numbers) to ensure balanced distribution of baseline body weights and starting parasitemia levels across all cohorts. Groups of four mice (n = 4, mean body weight of each group was ~30 g) were infected intravenously with 3.5 × 10^4 P. yoelii (Kenya strain, MRA-428) from a donor animal. Drug administration commenced the day after the animals were inoculated (Day 1). The test drug or the drug combination was dissolved in PEG-400 and administered by oral gavage once daily for 4 successive days in the 4-day suppression model, but only once on Day 1 in the single-dose cure model. Blood was collected via the tail vein with the aid of a syringe needle on Day 5 and then at weekly intervals through Day 28. Blood films were Giemsa-stained and examined microscopically to determine the level of parasitemia. All mice were observed daily to assess clinical signs. Animals with observable parasitemia following the experiments were euthanized; animals cleared of parasitemia from their bloodstream were observed daily with assessment of parasitemia performed weekly until Day 28, at which point, the animal(s) were scored as cured of the infection and then humanely euthanized. All treated mice with a negative smear on Day 28 were considered cured (100% protection). […]

blood-stage P. yoelii [5] = test: 4-day suppression murine model, oral; type: in vivo, P. yoelii in CF1 mice
Description: as §1

[6] = as stated in response to reviewers

## O=C1C(O)=C([C@H]2CC[C@H](c3ccc(Cl)cc3)CC2)C(=O)c2ccccc21 [ATV, atovaquone]
[1]
  IC50: ~2000 nM

## O=c1c2ccc(Oc3ccc(OC(F)(F)F)cc3)cc2[nH]c2cc(Cl)cc(F)c12 [T111]
[2]
  concentration that eliminated oocyst formation: 4.0 ng/mL and 9.5 nM
[3]; SP045 (K13 V555A, ART-S)
  IC50: 0.78 nM
[3]; SP060 (K13 R561H, ART-R)
  IC50: 0.87 nM
blood-stage P. yoelii [4]; TQ 0 + T111 20 mg/kg
  % survival through Day 28: 0%
  number of mice cured on Day 28: 0/4
  parasitemia burden on Day 5: 0
blood-stage P. yoelii [4]; TQ 0 + T111 30 mg/kg
  % survival through Day 28: 0%
  number of mice cured on Day 28: 0/4
  parasitemia burden on Day 5: 0
blood-stage P. yoelii [4]; TQ 0 + T111 40 mg/kg
  % survival through Day 28: 25%
  parasitemia burden on Day 5: 0
blood-stage P. yoelii [4]; TQ 0 + T111 40 mg/kg, 40 mg/kg
  number of mice cured on Day 28: One of four mice and 1/4
blood-stage P. yoelii [4]; TQ 0 + T111 50 mg/kg
  % survival through Day 28: 100%
  parasitemia burden on Day 5: 0
blood-stage P. yoelii [4]; TQ 0 + T111 50 mg/kg, 50 mg/kg
  number of mice cured on Day 28: all of four mice and single-dose cure in all treated mice and 4/4
blood-stage P. yoelii [5]; [6]
  ED50: 0.27 mg/kg/day
  ED90: 0.39 mg/kg/day
blood-stage P. yoelii [5]; female mice, oral
  ED50: 0.35 mg/kg/day
  ED90: 0.50 mg/kg/day
blood-stage P. yoelii [5]; four consecutive days, oral
  curative dose: 10 mg/kg/day
blood-stage P. yoelii [5]; male mice, oral
  ED50: 0.33 mg/kg/day
  ED90: 0.46 mg/kg/day
